# Test results: patent US5935973A, “Heterocyclcarboxamide derivatives and their use as therapeutic agents” (Knoll Aktiengesellschaft, priority 1995, dated 1999)
# Biological target: T1, α2A-adrenoceptors (Homo sapiens, UniProt P08913)
# T1 construct: Human cerebral cortex obtained at post-mortem; from tissue; host or cells: human post-mortem cerebral cortex membranes
# T1 sequence (P08913 1-465): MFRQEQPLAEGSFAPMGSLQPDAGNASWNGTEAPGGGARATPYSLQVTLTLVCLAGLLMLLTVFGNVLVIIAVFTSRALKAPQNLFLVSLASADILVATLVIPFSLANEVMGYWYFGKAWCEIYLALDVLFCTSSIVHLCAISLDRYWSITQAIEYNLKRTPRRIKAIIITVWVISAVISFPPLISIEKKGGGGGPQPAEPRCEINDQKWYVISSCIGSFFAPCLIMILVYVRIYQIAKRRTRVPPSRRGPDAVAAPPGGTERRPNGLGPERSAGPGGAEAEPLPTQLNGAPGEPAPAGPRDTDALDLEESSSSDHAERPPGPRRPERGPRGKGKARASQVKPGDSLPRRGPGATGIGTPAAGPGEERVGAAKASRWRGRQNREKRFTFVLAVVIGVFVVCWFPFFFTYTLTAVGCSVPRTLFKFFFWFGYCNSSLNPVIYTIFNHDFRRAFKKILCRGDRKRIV
# Assay: inhibition of tritiated RX 821002 binding to α2A-adrenoceptors in human cerebral cortex
# Conditions: at 10^-6 M, tritiated RX 821002, read-out: % displacement of radio ligand, α2A
# Protocol: Human cerebral cortex obtained at post-mortem was homogenised in ice-cold 0.25M sucrose (1:30 w/v) and centrifuged at 1,000 g at 4° C. for 12 minutes. The supernatant was stored on ice and the pellet was rehomogenised in 0.25M sucrose (1:15 w/v) and centrifuged at 850 g at 4° C. for 12 minutes. Combined supernatants were diluted with 5mM Tris-HCl (pH 7.5) containing 5 mM ethylenediamine tetraacetic acid (EDTA), readjusted to pH 7.5 (at 25° C.) with 1M sodium hydroxide to 1:80 w/v, and centrifuged at 11,000 g at 4° C. for 10 minutes. The resulting pellet was resuspended in 50 mM Tris-HCl (pH 7.5) containing 5.68 mM L-ascorbic acid and 0.5 mM EDTA, readjusted to pH 7.5 (at 25° C.) with 1 M sodium hydroxide to 1:80 w/v, and centrifuged at 11,000 g for 10 minutes. The pellet was stored at -80° C. On the day of the assay the pellet was thawed, resuspended in 50 mM Tris-HCl (pH 7.5) containing 5.68 mM L-ascorbic acid and 5 mM EDTA to 1:80 w/v and centrifuged at 11,000 g for 10 minutes. The final pellet was resuspended in 50 mM Tris-HCl (pH 7.5) containing 5.68 mM L-ascorbic acid and 5 mM EDTA (equivalent to 25 mg wet weight of tissue/ml).
# Aliquots (400 μl; equivalent to 10 mg wet weight of tissue/tube) of this suspension were added to tubes containing the ligand (50 μl; 0.2 nM) and distilled water (50 μl; total binding) or phentolamine (50 μl; 50 μM; non-specific binding) or test compound (50 μl; at a single concentration of 10^-6 M or at 10 concentrations ranging from 10^-11 -10^-3 M). The ligand was tritiated RX 821002 (2-(2-methoxy-1,4-[6,7(n)-^3 H]benzodioxan-2-yl)-2-imidazoline) and the mixture was incubated at 0° C. for 75 minutes before the incubation was terminated by rapid filtration.
# The filters were washed with ice-cold Tris-HCl buffer and dried. The filters were punched out into vials, scintillation fluid added and radioactivity determined by liquid scintillation counting. The percentage displacement of specific binding of the tritiated ligand was calculated for the single concentration (10^-6 M) of test compound. Displacement curves were then produced for those compounds which displaced ≥50% of specific binding of the tritiated ligand at 10^-6 M using a range of concentrations of the compound. The concentration which gave 50% inhibition of specific binding (IC50)was obtained from the curve. The inhibition coefficient Ki was then calculated using the formula [formula] in which [ligand] is the concentration of the tritiated ligand used and KD is the equilibrium dissociation constant for the ligand.
row,Structure (SMILES),inhibition at 1 µM
1,"Nc1ccsc1C(=O)NCC1CCN(C[C@H]2COc3ccc(Cl)cc3O2)CC1 [Example 17, (S)-3-amino-N-{[1-(7-chloro-1,4-benzodioxan-2-ylmethyl)-4-piperidyl]methyl}thiophene-2-carboxamide]",99%
2,"Nc1ncccc1C(=O)NCC1CCN(C[C@H]2COc3ccccc3O2)CC1 [Example 15, (S)-2-amino-N-{[1-(1,4-benzodioxan-2-ylmethyl)-4-piperidyl]methyl}pyridine-3-carboxamide]",100%
3,"O=C(NCC1CCN(CC2COc3ccccc3O2)CC1)c1ccccn1 (stereo not drawn) [Example 6, N-{[1-(1,4-benzodioxan-2-ylmethyl)-4-piperidyl]methyl}pyridine-2-carboxamide]",100%
4,"O=C(NCC1CCN(C[C@H]2COc3ccc(Cl)cc3O2)CC1)c1cccc2cccnc12 [Example 23, (S)-N-{[1-(7-chloro-1,4-benzodioxan-2-ylmethyl)-4-piperidyl]methyl}quinoline-8-carboxamide]",98%
5,"Cc1cccc2c1O[C@@H](CN1CCC(CNC(=O)c3cccnc3N)CC1)CO2 [Example 13, (S)-2-amino-N-{[1-(8-methyl-1,4-benzodioxan-2-ylmethyl)-4-piperidyl]methyl}pyridine-3-carboxamide]",100%
6,"Nc1ccsc1C(=O)NCC1CCN(CC2COc3ccccc3O2)CC1 (stereo not drawn) [Example 16, 3-amino-N-{[1-(1,4-benzodioxan-2-ylmethyl)-4-piperidyl]methyl}thiophene-2-carboxamide]",100%
7,"Nc1ncccc1C(=O)NCC1CCN(CC2COc3ccc(F)cc3O2)CC1 (stereo not drawn) [Example 10, 2-amino-N-{[1-(7-fluoro-1,4-benzodioxan-2-ylmethyl)-4-piperidyl]methyl}pyridine-3-carboxamide]",100%
8,"Cc1ncccc1C(=O)NCC1CCN(C[C@H]2COc3cccc(Cl)c3O2)CC1 [Example 9, (S)-N-{[1-(8-chloro-1,4-benzodioxan-2-ylmethyl)-4-piperidyl]methyl}-2-methylpyridine-3-carboxamide]",99%
9,"Cc1ccc2c(c1)O[C@@H](CN1CCC(CNC(=O)c3cccnc3N)CC1)CO2 [Example 5, (S)-2-amino-N-{[1-(7-methyl-1,4-benzodioxan-2-ylmethyl)-4-piperidyl]methyl}pyridine-3-carboxamide]",98%
10,"O=C(NCC1CCN(C[C@H]2COc3ccc(Cl)cc3O2)CC1)c1ccccn1 [Example 12, (S)-N-{[1-(7-chloro-1,4-benzodioxan-2-ylmethyl)-4-piperidyl]methyl}pyridine-2-carboxamide]",99%
11,"COc1cccc2c1OC(CN1CCC(CNC(=O)c3cccnc3N)CC1)CO2 (stereo not drawn) [Example 11, 2-amino-N-{[1-(8-methoxy-1,4-benzodioxan-2-ylmethyl)-4-piperidyl]methyl}pyridine-3-carboxamide]",99%
12,"O=C(NCC1CCN(CC2COc3ccccc3O2)CC1)c1cccc2cccnc12 (stereo not drawn) [Example 8, N-{[1-(1,4-benzodioxan-2-ylmethyl)-4-piperidyl]methyl}quinoline-8-carboxamide]",99%
13,"O=C(NCC1CCN(C[C@H]2COc3ccc(Cl)cc3O2)CC1)c1cccnc1 [Example 22, (S)-N-{[1-(7-chloro-1,4-benzodioxan-2-ylmethyl)-4-piperidyl]methyl}pyridine-3-carboxamide]",99%
14,"Nc1ncccc1C(=O)NCC1CCN(C[C@H]2COc3cccc(C(F)(F)F)c3O2)CC1 [Example 20, (S)-2-amino-N-{[1-(8-trifluoromethyl-1,4-benzodioxan-2-ylmethyl)-4-piperidyl]methyl}pyridine-3-carboxamide]",101%

# Same assay, conditions: tritiated RX 821002 0.2 nM, 0° C., 75 min
row,Structure (SMILES),Ki
1,"COc1ccc2c(c1)O[C@@H](CN1CCC(CNC(=O)c3cccnc3N)CC1)CO2 [Example 7, (S)-2-amino-N{[1-(7-methoxy-1,4-benzodioxan-2-ylmethyl)-4-piperidyl]methyl}-pyridine-3-carboxamide]",2.8 nM
